Results reported in the supplement of paper PMC11208160.
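Note: IS621 recombinase and bridge RNA in Escherichia coli cells.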

Experiment: recombinant barcode read abundance after kanamycin selection (control-corrected) (log10(CPM+1)); higher = more efficient recombination; sequences stand for … in AGTGCAGAGAAAATCGGCCAGTTTTCTCTGCCTGCAGTCCGCATGCCGT…AGATTTATGCAGCGGACTGCCTTTCTCCCAAAGTGATAAACCGGACAGTATCATGGACCGGTTTTCCCGGTAATCCGTATTTGCAAGGTTGGTTTCACT; site = the 11-nt target
Procedure, shortened: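 IS621 bridge RNA target-binding loops were paired with targets in a pooled library tested in E. coli. After co-electroporation with a donor plasmid, cells were plated in two replicates on chloramphenicol/ampicillin LB agar (control) and on chloramphenicol/ampicillin/kanamycin carrying 0.1 mM IPTG. Barcodes at recombinant junctions were counted as counts per million, averaged and control-corrected to give recombination efficiency. Values are log10(CPM+1).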
In the case of “TCTTGGACTTGGGTTCTAACCTGTTGCTC (site TCTTGGACTAA)”, the “recombinant barcode read abundance (log10)” value is reported as 0.0489.
For “TCTTGGACTTGGGTTCTAACCTGTTGCTC (site TCTTGGACTCA)”, the “recombinant barcode read abundance (log10)” value was 0.153.
With “TCTTGGACTTGGGTTCTAACCTGTTGCTC (site TCTTGGACTGA)” the “recombinant barcode read abundance (log10)” value was 0.165.
With “TCTTGGACTTGGGTTCTAACCTGTTGCTC (site TCTTGGACTTA)” the “recombinant barcode read abundance (log10)” value was 0.0183.
With “TCTTGTCCTTGGGTTCTAACCTGTTGCGG (site TCTTGTCCTAC)” the “recombinant barcode read abundance (log10)” value was 0.0164.
In the case of “TCTTGTCCTTGGGTTCTAACCTGTTGCGG (site TCTTGTCCTCC)”, the “recombinant barcode read abundance (log10)” value is reported as 0.526.
In the case of “TCTTGTCCTTGGGTTCTAACCTGTTGCGG (site TCTTGTCCTGC)”, the “recombinant barcode read abundance (log10)” value is reported as 0.104.
With “TCTTGTCCTTGGGTTCTAACCTGTTGCGG (site TCTTGTCCTTC)” the “recombinant barcode read abundance (log10)” value was 0.0135.
In the case of “TCTTTAGCTTGGGTTCTAACCTGTTGCAG (site CTAAGGTCTTA)”, the “recombinant barcode read abundance (log10)” value is reported as 0.24.
With “TCTTTAGCTTGGGTTCTAACCTGTTGCAG (site TCTTTAGCTCT)” the “recombinant barcode read abundance (log10)” value was 0.236.
In the case of “TGAAACTCTTGGGTTCTAACCTGTTGCGG (site GTCGGTCCTGT)”, the “recombinant barcode read abundance (log10)” value is reported as 0.27.
For “TGAAACTCTTGGGTTCTAACCTGTTGCGG (site TGAAACTCTCC)”, the “recombinant barcode read abundance (log10)” value was 1.16.
In the case of “TGAAAGACTTGGGTTCTAACCTGTTGCCG (site GACGGACCTAT)”, the “recombinant barcode read abundance (log10)” value is reported as 0.475.
In the case of “TGAAAGACTTGGGTTCTAACCTGTTGCCG (site TGAAAGACTCG)”, the “recombinant barcode read abundance (log10)” value is reported as 0.762.
With “TGAAGGTCTTGGGTTCTAACCTGTTGCCT (site TGAAAGTCTAG)” the “recombinant barcode read abundance (log10)” value was 0.213.
In the case of “TGAAGGTCTTGGGTTCTAACCTGTTGCCT (site TGAACGTCTAG)”, the “recombinant barcode read abundance (log10)” value is reported as 0.175.
For “TGAAGGTCTTGGGTTCTAACCTGTTGCCT (site TGAAGGTCTAG)”, the “recombinant barcode read abundance (log10)” value was 0.485.
For “TGAAGGTCTTGGGTTCTAACCTGTTGCCT (site TGAATGTCTAG)”, the “recombinant barcode read abundance (log10)” value was 0.362.
In the case of “TGACCTACTTGGGTTCTAACCTGTTGCCA (site CTCTACTCTAC)”, the “recombinant barcode read abundance (log10)” value is reported as 0.242.
In the case of “TGACCTACTTGGGTTCTAACCTGTTGCCA (site TGACCTACTTG)”, the “recombinant barcode read abundance (log10)” value is reported as 0.133.
In the case of “TGACTCTCTTGGGTTCTAACCTGTTGCCT (site TAACTCTCTAG)”, the “recombinant barcode read abundance (log10)” value is reported as 0.163.
With “TGACTCTCTTGGGTTCTAACCTGTTGCCT (site TCACTCTCTAG)” the “recombinant barcode read abundance (log10)” value was 0.172.
In the case of “TGACTCTCTTGGGTTCTAACCTGTTGCCT (site TGACTCTCTAG)”, the “recombinant barcode read abundance (log10)” value is reported as 1.02.
For “TGACTCTCTTGGGTTCTAACCTGTTGCCT (site TTACTCTCTAG)”, the “recombinant barcode read abundance (log10)” value was 0.228.
With “TGAGAAGCTTGGGTTCTAACCTGTTGCCT (site TGACCAGCTAG)” the “recombinant barcode read abundance (log10)” value was 0.299.
For “TGAGAAGCTTGGGTTCTAACCTGTTGCCT (site TGAGAAGCTAG)”, the “recombinant barcode read abundance (log10)” value was 1.1.
In the case of “TGAGCACCTTGGGTTCTAACCTGTTGCCT (site AGAGGACCTAG)”, the “recombinant barcode read abundance (log10)” value is reported as 0.158.
With “TGAGCACCTTGGGTTCTAACCTGTTGCCT (site TGAGCACCTAG)” the “recombinant barcode read abundance (log10)” value was 1.74.
With “TGAGGCACTTGGGTTCTAACCTGTTGCCT (site TGAGGATCTAG)” the “recombinant barcode read abundance (log10)” value was 0.03.
For “TGAGGCACTTGGGTTCTAACCTGTTGCCT (site TGAGGCACTAG)”, the “recombinant barcode read abundance (log10)” value was 0.474.
For “TGAGGGCCTTGGGTTCTAACCTGTTGCCT (site AGAGGTCCTAG)”, the “recombinant barcode read abundance (log10)” value was 0.186.
With “TGAGGGCCTTGGGTTCTAACCTGTTGCCT (site TGAGGGCCTAG)” the “recombinant barcode read abundance (log10)” value was 1.26.
For “TGAGGGGCTTGGGTTCTAACCTGTTGCCT (site TGAGAGGCTAG)”, the “recombinant barcode read abundance (log10)” value was 0.275.
In the case of “TGAGGGGCTTGGGTTCTAACCTGTTGCCT (site TGAGCGGCTAG)”, the “recombinant barcode read abundance (log10)” value is reported as 0.242.
In the case of “TGAGGGGCTTGGGTTCTAACCTGTTGCCT (site TGAGGGGCTAG)”, the “recombinant barcode read abundance (log10)” value is reported as 1.24.
In the case of “TGAGGGGCTTGGGTTCTAACCTGTTGCCT (site TGAGTGGCTAG)”, the “recombinant barcode read abundance (log10)” value is reported as 0.197.
In the case of “TGAGGGTCTTGGGTTCTAACCTGTTGCTT (site AGAGGGTCTAA)”, the “recombinant barcode read abundance (log10)” value is reported as 0.497.
For “TGAGGGTCTTGGGTTCTAACCTGTTGCTT (site CGAGGGTCTAA)”, the “recombinant barcode read abundance (log10)” value was 0.136.
With “TGAGGGTCTTGGGTTCTAACCTGTTGCTT (site GGAGGGTCTAA)” the “recombinant barcode read abundance (log10)” value was 0.0368.
In the case of “TGAGGGTCTTGGGTTCTAACCTGTTGCTT (site TGAGGGTCTAA)”, the “recombinant barcode read abundance (log10)” value is reported as 0.452.
With “TGAGTCTCTTGGGTTCTAACCTGTTGCCA (site ACCCAGCCTCT)” the “recombinant barcode read abundance (log10)” value was 0.0473.
In the case of “TGAGTCTCTTGGGTTCTAACCTGTTGCCA (site TGAGTCTCTTG)”, the “recombinant barcode read abundance (log10)” value is reported as 1.47.
In the case of “TGAGTTCCTTGGGTTCTAACCTGTTGCTT (site TGAGTACCTAA)”, the “recombinant barcode read abundance (log10)” value is reported as 0.0626.
For “TGAGTTCCTTGGGTTCTAACCTGTTGCTT (site TGAGTCCCTAA)”, the “recombinant barcode read abundance (log10)” value was 0.0401.
For “TGAGTTCCTTGGGTTCTAACCTGTTGCTT (site TGAGTGCCTAA)”, the “recombinant barcode read abundance (log10)” value was 0.00865.
In the case of “TGAGTTCCTTGGGTTCTAACCTGTTGCTT (site TGAGTTCCTAA)”, the “recombinant barcode read abundance (log10)” value is reported as 0.719.
With “TGATAGACTTGGGTTCTAACCTGTTGCAC (site AGAGAGACTGT)” the “recombinant barcode read abundance (log10)” value was 0.0172.
In the case of “TGATAGACTTGGGTTCTAACCTGTTGCAC (site TGATAGACTGT)”, the “recombinant barcode read abundance (log10)” value is reported as 1.38.
With “TGATTTCCTTGGGTTCTAACCTGTTGCCT (site AGATTGCCTAG)” the “recombinant barcode read abundance (log10)” value was 0.
For “TGATTTCCTTGGGTTCTAACCTGTTGCCT (site TGATTTCCTAG)”, the “recombinant barcode read abundance (log10)” value was 0.
For “TGCAATACTTGGGTTCTAACCTGTTGCAT (site ACAGTATCTCA)”, the “recombinant barcode read abundance (log10)” value was 0.054.
For “TGCAATACTTGGGTTCTAACCTGTTGCAT (site TGCAATACTAT)”, the “recombinant barcode read abundance (log10)” value was 0.136.
For “TGCAGGGCTTGGGTTCTAACCTGTTGCGG (site GCATACACTTG)”, the “recombinant barcode read abundance (log10)” value was 0.177.
For “TGCAGGGCTTGGGTTCTAACCTGTTGCGG (site TGCAGGGCTCC)”, the “recombinant barcode read abundance (log10)” value was 1.26.
In the case of “TGCCAGACTTGGGTTCTAACCTGTTGCAT (site TGCCAGACTAT)”, the “recombinant barcode read abundance (log10)” value is reported as 1.12.
For “TGCCAGACTTGGGTTCTAACCTGTTGCAT (site TGCCAGCCTAG)”, the “recombinant barcode read abundance (log10)” value was 0.466.
In the case of “TGCCCGCCTTGGGTTCTAACCTGTTGCCT (site AGCCCGCCTAG)”, the “recombinant barcode read abundance (log10)” value is reported as 0.0736.
In the case of “TGCCCGCCTTGGGTTCTAACCTGTTGCCT (site CGCCCGCCTAG)”, the “recombinant barcode read abundance (log10)” value is reported as 0.102.
For “TGCCCGCCTTGGGTTCTAACCTGTTGCCT (site GGCCCGCCTAG)”, the “recombinant barcode read abundance (log10)” value was 0.757.
In the case of “TGCCCGCCTTGGGTTCTAACCTGTTGCCT (site TGCCCGCCTAG)”, the “recombinant barcode read abundance (log10)” value is reported as 0.292.
For “TGCCGACCTTGGGTTCTAACCTGTTGCCT (site TGCCGACCTAG)”, the “recombinant barcode read abundance (log10)” value was 0.321.
For “TGCCGACCTTGGGTTCTAACCTGTTGCCT (site TGCGGAGCTAG)”, the “recombinant barcode read abundance (log10)” value was 0.185.
For “TGCCTAGCTTGGGTTCTAACCTGTTGCCT (site TGACTAGCTAG)”, the “recombinant barcode read abundance (log10)” value was 0.0824.
In the case of “TGCCTAGCTTGGGTTCTAACCTGTTGCCT (site TGCCTAGCTAG)”, the “recombinant barcode read abundance (log10)” value is reported as 0.24.
With “TGCCTAGCTTGGGTTCTAACCTGTTGCCT (site TGGCTAGCTAG)” the “recombinant barcode read abundance (log10)” value was 0.11.
For “TGCCTAGCTTGGGTTCTAACCTGTTGCCT (site TGTCTAGCTAG)”, the “recombinant barcode read abundance (log10)” value was 0.0825.
For “TGCCTATCTTGGGTTCTAACCTGTTGCTT (site ATGTCTACTCT)”, the “recombinant barcode read abundance (log10)” value was 0.325.
With “TGCCTATCTTGGGTTCTAACCTGTTGCTT (site TGCCTATCTAA)” the “recombinant barcode read abundance (log10)” value was 0.52.
With “TGCCTGCCTTGGGTTCTAACCTGTTGCCT (site AAGACAACTCC)” the “recombinant barcode read abundance (log10)” value was 0.06.
With “TGCCTGCCTTGGGTTCTAACCTGTTGCCT (site TGCCTGCCTAG)” the “recombinant barcode read abundance (log10)” value was 0.287.
For “TGCGCCTCTTGGGTTCTAACCTGTTGCTG (site TACGCCTCTTA)”, the “recombinant barcode read abundance (log10)” value was 0.108.
In the case of “TGCGCCTCTTGGGTTCTAACCTGTTGCTG (site TGCGCCTCTCA)”, the “recombinant barcode read abundance (log10)” value is reported as 1.26.
With “TGCGCTACTTGGGTTCTAACCTGTTGCCT (site TGCGCAACTAG)” the “recombinant barcode read abundance (log10)” value was 0.0205.
In the case of “TGCGCTACTTGGGTTCTAACCTGTTGCCT (site TGCGCCACTAG)”, the “recombinant barcode read abundance (log10)” value is reported as 0.0462.
In the case of “TGCGCTACTTGGGTTCTAACCTGTTGCCT (site TGCGCGACTAG)”, the “recombinant barcode read abundance (log10)” value is reported as 0.141.
In the case of “TGCGCTACTTGGGTTCTAACCTGTTGCCT (site TGCGCTACTAG)”, the “recombinant barcode read abundance (log10)” value is reported as 0.25.
In the case of “TGCGGAGCTTGGGTTCTAACCTGTTGCCG (site GATTATACTAA)”, the “recombinant barcode read abundance (log10)” value is reported as 0.0782.
